Earlier results as cited in patent US20040147613A1, “Use of neuroactive substances for the treatment of parkinsons disease and pharmaceutical combination” (priority 2001, published 2004).

Columns and labels:
[1] = test system: local synapse populations / central projections
[2] = test system: GABAergic axosomatic synapses in the medial prefrontal cortex; details: 4-month chronic treatment, rat
central DA-receptors = details: foetal administrations

CNCCCN1c2ccccc2CCc2ccccc21 [desipramine]
axonal sprouting of central projections ([1]; chronic treatment): induces axonal sprouting of central noradrenergic and probably also dopaminergic cortical projections

O=C(CCCN1CCC(O)(c2ccc(Cl)cc2)CC1)c1ccc(F)cc1 [haloperidol]
number of GABAergic axosomatic synapses in the medial prefrontal cortex [2]: dramatic rise in the number of GABAergic axosomatic synapses | sprouting of glutamatergic corticostriatal projections ([1]; 14-day chronic treatment): indications of transsynaptic sprouting of glutamatergic corticostriatal projections

β-endorphin
effect on central DA-receptors (central DA-receptors): expression of the plastic capacities, typical of adult rats, of central DA-receptors ceases
